Data: publication PMC5674125, “Towards eco-friendly crop protection: natural deep eutectic solvents and defensive secondary metabolites” (Phytochemistry Reviews, 2017)

Legend:
Pieris rassicae = test system: Pieris rassicae; parameters: method as in Onkokesung et al. (2014); settings: applied exogenously at 100 µM; ref Onkokesung et al. (2014); cited from earlier work
Lymantria dispar [1] = test system: Lymantria dispar; parameters: method as in Beninger and Abou-Zaid (1997); settings: 0.05%, day 15; ref Beninger and Abou-Zaid (1997); cited from earlier work
Spodoptera litura = settings: 0.7–0.8 µg/ml; ref Mallikarjuna et al. (2004); cited from earlier work
Acyrthosiphon pisum = test system: Acyrthosiphon pisum; parameters: method as in Goławska et al. (2014); settings: ref Goławska et al. (2014), cited from earlier work
[2] = ref Dai et al. (2013, 2015); cited from earlier work
Bactrocera Cucurbitae = test system: Bactrocera Cucurbitae; parameters: method as in Sharma and Sohal (2013); settings: 125 ppm; ref Sharma and Sohal (2013); cited from earlier work
Aphis fabae = test system: Aphis fabae; parameters: method as in Lattanzio et al. (2000); settings: 0.1 M; ref Lattanzio et al. (2000); cited from earlier work
Spodoptera frugiperda [3] = test system: Spodoptera frugiperda; parameters: method as in Gallo et al. (2006); settings: 0.1 mg/g; ref Gallo et al. (2006); cited from earlier work
Helicoverpa armigera [4] = test system: Helicoverpa armigera; parameters: method as in Liu et al. (2015); settings: 3 and 10 mg/g; ref Liu et al. (2015); cited from earlier work
Helicoverpa armigera [5] = test system: Helicoverpa armigera; parameters: method as in Li et al. (2016); settings: ref Li et al. (2016), cited from earlier work
Spodoptera frugiperda [6] = test system: Spodoptera frugiperda; parameters: method as in Diaz Napal and Palacios (2015); settings: 100 µg/cm^2; ref Diaz Napal and Palacios (2015); cited from earlier work
[7] = Solubility in natural deep eutectic solvents (saturated solutions, UV-VIS); format: physicochemical; settings: 1,2-propanediol: choline chloride: water (1:1:1), water 7.71%; 24 h at 50 °C; mean ± SD, n = 3
Method: As an extension of these studies, we have investigated the solubility of six insecticidal metabolites in a variety of NADES. The solvent selection framework consisted of the following steps: • Preliminary solvent screening: a pre-selected set of 20 NADES was used as a starting point to identify and rank potential NADES candidates (Table 3). Selection constraints were imposed on important properties such as viscosity and stability.
• Secondary screening: solubility tests were performed to determine the best solvent for each of the metabolites. Saturated solutions, generated by adding an excess amount of each compound to different NADES, were kept under constant stirring (1100 rpm) for 24 h at 50 °C. The 20 candidates were ranked in decreasing order of solvent power. • Solubility verification: For the verification of solubilities, samples were centrifuged for 5 min at 2000 rpm and subsequently diluted suitably with methanol for spectrophotometric analysis (UV-1800 UV–VIS spectrophotometer, Shimadzu Europe GmbH, Duisburg, Germany).

Helicoverpa zea = test system: Helicoverpa zea; parameters: method as in Summers and Felton (1994); settings: 4 mM, ref Summers and Felton (1994), cited from earlier work
Lymantria dispar [8] = test system: Lymantria dispar; parameters: method as in Beninger et al. (2004); settings: 100 ppm (2.8 mM) and 1000 ppm (28 mM); ref Beninger et al. (2004); cited from earlier work
[9] = test system: Frankliniella occidentalis; parameters: method as in Leiss et al. (2009a); settings: 5% (5 mg/ml); ref Leiss et al. (2009a); cited from earlier work
Dalbulus maidis = test system: Dalbulus maidis; parameters: method as in Dowd and Vega (1996); settings: adults, 400 ppm, in vitro bioassay; ref Dowd and Vega (1996); cited from earlier work
Plagiodera versicolora = test system: Plagiodera versicolora; parameters: method as in Jassbi (2003); settings: ref Jassbi (2003); cited from earlier work
Trichoplusia ni = test system: Trichoplusia ni; parameters: method as in Beninger et al. (2004); settings: 100 ppm (2.8 mM) and 1000 ppm (28 mM); ref Beninger et al. (2004); cited from earlier work
Agelastica alni = test system: Agelastica alni; parameters: method as in Ikonen et al. (2002); settings: 2.48% by weight, dual choice bioassay; ref Ikonen et al. (2002); cited from earlier work

Structure (SMILES): C[C@@H]1O[C@@H](Oc2cc(O)c3c(=O)c(O[C@@H]4O[C@@H](C)[C@H](O)[C@@H](O)[C@H]4O)c(-c4ccc(O)cc4)oc3c2)[C@H](O)[C@H](O)[C@H]1O [kaempferol 3-O-rhamnoside 7-O-rhamnoside]
- Growth (Pieris rassicae): Growth negatively affected

Structure (SMILES): O=c1c(O)c(-c2ccc(O)c(O)c2)oc2cc(O)cc(O)c12 [Quercetin]
- Larval weight reduction (Lymantria dispar [1]): Larval growth inhibitor. Larval weight reduced by 33% at 0.05% at day 15
- Development (Spodoptera litura): Developmental retardation
- Larval mortality (Spodoptera litura): > 60%
- Probing and feeding deterrence (Acyrthosiphon pisum; 100 µg cm^−3): Probing and feeding deterrent
- Mortality, development time, fecundity (Acyrthosiphon pisum; higher concentration than 100 µg cm^−3): mortality and development time are increased whereas fecundity is decreased
- Solubility in NADES compared to aqueous solubility [2]: significantly increased
- Food assimilation, larval and pupal weight (Bactrocera Cucurbitae): Growth regulator and or deterrent: reduction in food assimilation as well as larval and pupal weight at 125 ppm
- Progeny deposition (Aphis fabae): Inhibitory activity on progeny deposition 0.1 M
- Larval mortality (Spodoptera frugiperda [3]): 78% Larval mortality at 0.1 mg/g
- Growth, pupation, adult emergence, survival (Helicoverpa armigera [4]): Deleterious effects growth, pupation and adult emergence, and survivalat 3 and 10 mg/g
- Reduction of pupation (Helicoverpa armigera [5]; 8 mg/g): 50%
- Reduction of larval weight (Helicoverpa armigera [5]; 16 mg/g): ~50%
- Mortality (Helicoverpa armigera [5]; 32 mg/g): > 80%
- Feeding deterrence (Spodoptera frugiperda [6]): Feeding deterrent (57%) at 100 µg/cm^2
- Solubility [7]: 44.34 ± 0.76 mg/g

Structure (SMILES): O=C(/C=C/c1ccc(O)c(O)c1)O[C@@H]1C[C@](O)(C(=O)O)C[C@@H](O)[C@H]1O [Chlorogenic acid]
- Prooxidant effect on midgut proteins (Helicoverpa zea; chronic exposure): oxidative stress in midgut proteins
- Development rate, survivorship and pupal weight (Helicoverpa zea): Development rate and pupal weight are negatively influenced
- Larval growth and development (Lymantria dispar [8]): Reduced larval growth and development at 100 ppm (2.8 mM) and 1000 ppm (28 mM)
- Relative growth rate and survival of first instar larva [9]: Reduced relative growth rate and survival of first instar larva at 5% (5 mg/ml)
- Development (Spodoptera litura): Developmental retardation
- Larval mortality (Spodoptera litura): > 60%
- Antifeedant activity (Dalbulus maidis): Antifeedant activity in adults at 400 ppm (in vitro bioassay)
- Amount with antifeedant activity (Plagiodera versicolora): Antifeedant activity above 50 µg/disk
- Larval growth and development (Trichoplusia ni): Reduced larval growth and development at 100 ppm (2.8 mM) and 1000 ppm (28 mM)
- Feeding deterrence (Agelastica alni): Feeding deterrent at concentration of 2.48% by weight (dual choice bioassay)
